According to patent US20140088069A1, “NOVEL ANTIBACTERIAL COMBINATION THERAPY” (priority 2011, published 2014):

Columns and labels:
[1] = test system: S. aureus (Newman strain); assay: Checkerboard (FIC) analysis against S. aureus Newman; type: cell-based, Staphylococcus aureus; settings: antibiotic in combination with ticlopidine; S. aureus (Newman strain)
CA-MRSA USA300 = assay: Checkerboard (FIC) analysis against CA-MRSA USA300; type: cell-based, Staphylococcus aureus; settings: for drug-drug interaction with cefuroxime (checkerboard secondary screen): in combination with cefuroxime
Protocol: Here a matrix of drug concentrations were tested in combinations at the concentrations shown (μg/mL). Greyscale indicates growth—darker is more growth, lighter is less growth. FIC index is a measure of synergy and is calculated as follows: FIC index=FIC (cefuroxime)+FIC (drug compound).
The combination of ticlopidine and cefuroxime was further tested as above against a variety of S. aureus strains as shown in Table 1 below.
FIC index=FIC (β-lactam)+FTC (ticlopidine). […]

[2] = antibiotic in combination with ticlopidine, CA-MRSA USA 300, FIC (β-lactam)+FIC (ticlopidine)

Compound	FIC index [1]	FIC index (CA-MRSA USA300; [2])	also measured
NC[C@H]1O[C@H](O[C@H]2[C@H](O)[C@@H](O[C@H]3O[C@H](CO)[C@@H](O)[C@H](N)[C@H]3O)[C@H](N)C[C@@H]2N)[C@H](N)C[C@@H]1O [Tobramycin]	≦2	–	–
CC[C@H]1OC(=O)[C@H](C)[C@@H](O[C@H]2C[C@@](C)(OC)[C@@H](O)[C@H](C)O2)[C@H](C)[C@@H](O[C@@H]2O[C@H](C)C[C@H](N(C)C)[C@H]2O)[C@](C)(O)C[C@@H](C)C(=O)[C@H](C)[C@@H](O)[C@]1(C)O [Erythromycin]	≦2	–	–
CN1[C@@H]2CC[C@H]1C[C@@H](OC(c1ccccc1)c1ccccc1)C2 [Benztropine]	–	–	drug-drug interaction with cefuroxime (checkerboard secondary screen) (CA-MRSA USA300): synergistic interactions
Tunicamycin	≦0.75	–	–
CO/N=C(\C(=O)N[C@@H]1C(=O)N2C(C(=O)O)=C(COC(C)=O)CS[C@H]12)c1csc(N)n1 [Cefotaxime]	–	≦0.5	–
CC(=O)OCC1=C(C(=O)O)N2C(=O)[C@@H](NC(=O)Cc3cccs3)[C@H]2SC1 [Cephalothin]	–	≦0.5	–
CC1=C(C(=O)O)N2C(=O)[C@@H](NC(=O)[C@H](N)C3=CCC=CC3)[C@H]2SC1 [Cephradine]	–	≦2	–
Polymyxin	≦0.5	–	–
CC[C@H]1OC(=O)[C@H](C)[C@@H](O[C@H]2C[C@@](C)(OC)[C@@H](O)[C@H](C)O2)[C@H](C)[C@@H](O[C@@H]2O[C@H](C)C[C@H](N(C)C)[C@H]2O)[C@](C)(OC)C[C@@H](C)C(=O)[C@H](C)[C@@H](O)[C@]1(C)O [Clarithromycin]	≦2	–	–
COc1cc(Cc2cnc(N)nc2N)cc(OC)c1OC [Trimethoprim]	≦2	–	–
CC(=O)OCC1=C(C(=O)O)N2C(=O)[C@@H](NC(=O)CCC[C@@H](N)C(=O)O)[C@H]2SC1 [Cephalosporin C]	≦0.75	–	–
CC(=O)Oc1cc2c(s1)CCN(C(C(=O)C1CC1)c1ccccc1F)C2 (racemic) [Prasugrel, (RS)-5-[2-cyclopropyl-1-(2-fluorophenyl)-2-oxoethyl]-4,5,6,7-tetrahydrothieno[3,2-c]pyridin-2-yl acetate]	–	–	MIC (CA-MRSA USA300; Staphylococcus aureus, read-out: MIC thienopyridine): > 128 mg/L; FIC thienopyridine (CA-MRSA USA300; in the presence of cefuroxime, CA-MRSA USA300 (Table 4)): 0.25; FIC index (CA-MRSA USA300; thienopyridine in combination with cefuroxime, CA-MRSA USA300 (Table 4)): ≦0.50; FIC index (CA-MRSA USA300; thienopyridine in combination with cefuroxime, CA-MRSA USA300 (Table 4), listed as prasugrel): ≤ 0.50
C[C@H]1COc2c(N3CCN(C)CC3)c(F)cc3c(=O)c(C(=O)O)cn1c23 [Levofloxacin]	≦2	–	–
CCCCCCCCCC(=O)N[C@@H](Cc1c[nH]c2ccccc12)C(=O)N[C@H](CC(N)=O)C(=O)N[C@@H](CC(=O)O)C(=O)N[C@@H]1C(=O)NCC(=O)N[C@@H](CCCN)C(=O)N[C@@H](CC(=O)O)C(=O)N[C@H](C)C(=O)N[C@@H](CC(=O)O)C(=O)NCC(=O)N[C@H](CO)C(=O)N[C@@H]([C@H](C)CC(=O)O)C(=O)N[C@@H](CC(=O)c2ccccc2N)C(=O)O[C@@H]1C [Daptomycin]	≦2	–	–
Cc1onc(-c2ccccc2Cl)c1C(=O)N[C@@H]1C(=O)N2[C@@H]1SC(C)(C)[C@@H]2C(=O)O [Cloxacillin]	–	≦0.5	–
N[C@@H]1CONC1=O [D-cycloserine]	≦2	–	–
C[C@@H]1O[C@@H]1P(=O)(O)O [Fosfomycin]	≦0.5	–	–
CC1(C)S[C@@H]2[C@H](NC(=O)Cc3ccccc3)C(=O)N2[C@H]1C(=O)O [Penicillin G]	–	≦0.5	–
CN(C)CCC(c1ccc(Cl)cc1)c1ccccn1 (stereo not shown) [chlorpheniramine]	–	–	drug-drug interaction with cefuroxime (checkerboard secondary screen) (CA-MRSA USA300): synergistic interactions
C[C@@H](O)[C@H]1C(=O)N2C(C(=O)O)=C(S[C@@H]3CN[C@H](C(=O)N(C)C)C3)[C@H](C)[C@H]12 [Meropenem]	–	≦0.75	–
CO/N=C(\C(=O)N[C@@H]1C(=O)N2C(C(=O)O)=CCS[C@H]12)c1csc(N)n1 [Ceftizoxime]	–	≦0.5	–
CC1=C(C(=O)O)N2C(=O)[C@@H](NC(=O)[C@H](N)c3ccc(O)cc3)[C@H]2SC1 [Cefadroxil]	–	≦2	–
